Where “and” joins values, the source holds several entries; their conditions need not be identical. Equal entries are not always repeated. Inconclusive results and toxic doses are left out. No stated cut-off is given here; in the data, active means T/C of 150% or more; inactive means T/C below 125%.
Test system: L1210 leukemia ip in BDF1 mice, survival T/C
Test: NCI In Vivo Anticancer Drug Screen. Data for tumor model L1210 Leukemia (intraperitoneal) in B6D2F1 (BDF1) mice
Conditions: higher = longer survival
How it was run: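 Survival endpoint. Drug-treated group vs vehicle group, expressed as T divided by C. Tumor passaged by transplantation.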

[1] = endpoint: mean survival time, dose: 100.0 mg/kg/injection, schedule: Q01DX001 (ip), vehicle: carboxymethylcellulose (CMC)
[2] = endpoint: mean survival time, dose: 100.0 mg/kg/injection, schedule: Q01DX001 (ip), vehicle: saline
[3] = endpoint: mean survival time, dose: 100.0 mg/kg/injection, schedule: Q01DX009 (ip), vehicle: Klucel (hydroxypropylcellulose) (HPC)
[4] = endpoint: mean survival time, dose: 200.0 mg/kg/injection, schedule: Q01DX001 (ip), vehicle: carboxymethylcellulose (CMC)
[5] = endpoint: mean survival time, dose: 200.0 mg/kg/injection, schedule: Q01DX001 (ip), vehicle: saline
[6] = endpoint: mean survival time, dose: 200.0 mg/kg/injection, schedule: Q01DX009 (ip), vehicle: Klucel (hydroxypropylcellulose) (HPC)
[7] = endpoint: mean survival time, dose: 400.0 mg/kg/injection, schedule: Q01DX001 (ip), vehicle: carboxymethylcellulose (CMC)
[8] = endpoint: mean survival time, dose: 400.0 mg/kg/injection, schedule: Q01DX001 (ip), vehicle: saline
[9] = endpoint: mean survival time, dose: 400.0 mg/kg/injection, schedule: Q01DX009 (ip), vehicle: Klucel (hydroxypropylcellulose) (HPC)
[10] = endpoint: mean survival time, dose: 100.0 mg/kg/injection, schedule: Q01DX009 (ip), vehicle: saline with Tween-80
[11] = endpoint: mean survival time, dose: 200.0 mg/kg/injection, schedule: Q01DX009 (ip), vehicle: saline with Tween-80
[12] = endpoint: mean survival time, dose: 400.0 mg/kg/injection, schedule: Q01DX009 (ip), vehicle: saline with Tween-80
[13] = endpoint: mean survival time, dose: 25.0 mg/kg/injection, schedule: Q01DX009 (ip), vehicle: saline with Tween-80
[14] = endpoint: mean survival time, dose: 25.0 mg/kg/injection, schedule: Q04DX003 (ip), vehicle: saline with Tween-80
[15] = endpoint: mean survival time, dose: 50.0 mg/kg/injection, schedule: Q01DX009 (ip), vehicle: saline with Tween-80
[16] = endpoint: mean survival time, dose: 50.0 mg/kg/injection, schedule: Q04DX003 (ip), vehicle: saline with Tween-80
[17] = endpoint: mean survival time, dose: 100.0 mg/kg/injection, schedule: Q04DX003 (ip), vehicle: saline with Tween-80
[18] = endpoint: mean survival time, dose: 100.0 mg/kg/injection, schedule: Q04DX003 (ip), vehicle: Klucel (hydroxypropylcellulose) (HPC)
[19] = endpoint: mean survival time, dose: 200.0 mg/kg/injection, schedule: Q04DX003 (ip), vehicle: Klucel (hydroxypropylcellulose) (HPC)
[20] = endpoint: mean survival time, dose: 400.0 mg/kg/injection, schedule: Q04DX003 (ip), vehicle: Klucel (hydroxypropylcellulose) (HPC)
[21] = endpoint: mean survival time, dose: 50.0 mg/kg/injection, schedule: Q01DX001 (ip), vehicle: saline with Tween-80
[22] = endpoint: mean survival time, dose: 200.0 mg/kg/injection, schedule: Q04DX003 (ip), vehicle: saline with Tween-80
[23] = endpoint: mean survival time, dose: 400.0 mg/kg/injection, schedule: Q04DX003 (ip), vehicle: saline with Tween-80

Measured: T/C

Cc1cc(=O)[nH]c2c(C)cccc12
inactive: [1] 93 % of control | [2] 95 % of control | [3] 104 % of control | [4] 104 % of control | [5] 98 % of control | [6] 108 % of control | [7] 98 % of control | [8] 87 % of control | [9] 105 % of control

CC(=O)Nc1ccc(/C=N/NC(=O)CC2CCCCC2)cc1
inactive: [10] 88 % of control | [11] 93 % of control | [12] 100 % of control

CCOC(=O)C1(C(C)C)OC2(O)C3CCCN3CC(C(C)C)N2C1=O (stereo not drawn)
inactive: endpoint: mean survival time, dose: 6.25 mg/kg/injection, schedule: Q01DX009 (ip), vehicle: saline with Tween-80 100 % of control | endpoint: mean survival time, dose: 12.5 mg/kg/injection, schedule: Q01DX009 (ip), vehicle: saline with Tween-80 113 % of control | [13] 100 % of control | [14] 94 % of control | [15] 103 % of control | [16] 103 % of control | [10] 96 % of control | [17] 94 % of control

CCCCCCCCCCCCCCCC(=O)Nc1ccc(O)cc1
inactive: [2] 110 % of control | [18] 97 % of control | [5] 110 % of control | [19] 102 % of control | [8] 108 % of control | [20] 95 % of control

CN1CCN(CCCN2c3ccccc3Sc3ccc(Cl)cc32)CC1
inactive: endpoint: mean survival time, dose: 100.0 mg/kg/injection, schedule: Q04DX002 (ip), vehicle: Klucel (hydroxypropylcellulose) (HPC) 104 % of control | endpoint: mean survival time, dose: 200.0 mg/kg/injection, schedule: Q04DX002 (ip), vehicle: Klucel (hydroxypropylcellulose) (HPC) 90 % of control | endpoint: median survival time, dose: 6.25 mg/kg/injection, schedule: Q06HX032 (oral), vehicle: Klucel (hydroxypropylcellulose) (HPC) 97 % of control | endpoint: median survival time, dose: 6.25 mg/kg/injection, schedule: Q06HX044 (oral), vehicle: Klucel (hydroxypropylcellulose) (HPC) 91 % of control | endpoint: median survival time, dose: 12.5 mg/kg/injection, schedule: Q06HX032 (oral), vehicle: Klucel (hydroxypropylcellulose) (HPC) 98 % of control and 107 % of control | endpoint: median survival time, dose: 12.5 mg/kg/injection, schedule: Q06HX044 (oral), vehicle: Klucel (hydroxypropylcellulose) (HPC) 95 % of control and 96 % of control | endpoint: median survival time, dose: 25.0 mg/kg/injection, schedule: Q06HX032 (oral), vehicle: Klucel (hydroxypropylcellulose) (HPC) 97 % of control and 116 % of control | endpoint: median survival time, dose: 25.0 mg/kg/injection, schedule: Q06HX044 (oral), vehicle: Klucel (hydroxypropylcellulose) (HPC) 101 % of control and 76 % of control | endpoint: median survival time, dose: 50.0 mg/kg/injection, schedule: Q06HX032 (oral), vehicle: Klucel (hydroxypropylcellulose) (HPC) 57 % of control and 69 % of control | endpoint: median survival time, dose: 50.0 mg/kg/injection, schedule: Q06HX044 (oral), vehicle: Klucel (hydroxypropylcellulose) (HPC) 93 % of control and 35 % of control

Cc1ccc(N=Nc2ccc(C)cc2NC(=O)c2ccc(Cl)cc2)cc1
inactive: [21] 100 % of control | [16] 90 % of control | endpoint: mean survival time, dose: 100.0 mg/kg/injection, schedule: Q01DX001 (ip), vehicle: saline with Tween-80 90 % of control | [10] 93 % of control and 94 % of control | endpoint: mean survival time, dose: 100.0 mg/kg/injection, schedule: Q04DX002 (ip), vehicle: saline with Tween-80 94 % of control and 90 % of control | [17] 93 % of control | [11] 95 % of control and 97 % of control | endpoint: mean survival time, dose: 200.0 mg/kg/injection, schedule: Q04DX002 (ip), vehicle: saline with Tween-80 93 % of control and 91 % of control | [22] 93 % of control | [12] 90 % of control and 92 % of control | endpoint: mean survival time, dose: 400.0 mg/kg/injection, schedule: Q04DX002 (ip), vehicle: saline with Tween-80 87 % of control and 89 % of control | [23] 89 % of control and 90 % of control

COC(=O)c1cc(C)c(I)c([N+](=O)[O-])c1
inactive: [3] 109 % of control | [6] 102 % of control | [9] 98 % of control

CCCCCc1cc(O)c(CCCC)c(O)c1
inactive: endpoint: mean survival time, dose: 6.25 mg/kg/injection, schedule: Q04DX002 (ip), vehicle: other 97 % of control | endpoint: mean survival time, dose: 12.5 mg/kg/injection, schedule: Q04DX002 (ip), vehicle: other 110 % of control | endpoint: mean survival time, dose: 25.0 mg/kg/injection, schedule: Q04DX002 (ip), vehicle: other 93 % of control | endpoint: mean survival time, dose: 50.0 mg/kg/injection, schedule: Q04DX002 (ip), vehicle: other 93 % of control

Oc1ccc(/C=N/N2CCOCC2)c(O)c1
inactive: [1] 100 % of control and 110 % of control | endpoint: mean survival time, dose: 100.0 mg/kg/injection, schedule: Q01DX009 (ip), vehicle: carboxymethylcellulose (CMC) 97 % of control | endpoint: mean survival time, dose: 100.0 mg/kg/injection, schedule: Q04DX002 (ip), vehicle: carboxymethylcellulose (CMC) 92 % of control and 89 % of control | endpoint: mean survival time, dose: 100.0 mg/kg/injection, schedule: Q04DX003 (ip), vehicle: carboxymethylcellulose (CMC) 95 % of control and 103 % of control | [4] 98 % of control and 110 % of control | endpoint: mean survival time, dose: 200.0 mg/kg/injection, schedule: Q01DX009 (ip), vehicle: carboxymethylcellulose (CMC) 95 % of control | endpoint: mean survival time, dose: 200.0 mg/kg/injection, schedule: Q04DX002 (ip), vehicle: carboxymethylcellulose (CMC) 96 % of control and 103 % of control | endpoint: mean survival time, dose: 200.0 mg/kg/injection, schedule: Q04DX003 (ip), vehicle: carboxymethylcellulose (CMC) 95 % of control and 90 % of control | [7] 98 % of control and 110 % of control | endpoint: mean survival time, dose: 400.0 mg/kg/injection, schedule: Q01DX009 (ip), vehicle: carboxymethylcellulose (CMC) 88 % of control | endpoint: mean survival time, dose: 400.0 mg/kg/injection, schedule: Q04DX002 (ip), vehicle: carboxymethylcellulose (CMC) 95 % of control and 86 % of control | endpoint: mean survival time, dose: 400.0 mg/kg/injection, schedule: Q04DX003 (ip), vehicle: carboxymethylcellulose (CMC) 95 % of control and 87 % of control

O=C1c2cccc(NCCO)c2C(=O)c2c(NCCO)cccc21
inactive: [18] 94 % of control | [19] 102 % of control | [20] 94 % of control

O=S1(=O)N=C(c2ccccc2)CC(c2ccccc2)N1 (stereo not drawn)
inactive: [13] 87 % of control | [15] 96 % of control | [16] 98 % of control | [10] 94 % of control | [17] 93 % of control | [11] 93 % of control | [22] 86 % of control

Cc1cc(OC(=O)Nc2c(C)cccc2C)cc(C)c1Cl
inactive: endpoint: mean survival time, dose: 25.0 mg/kg/injection, schedule: Q01DX001 (ip), vehicle: saline with Tween-80 93 % of control | [13] 111 % of control and 89 % of control | [14] 107 % of control | [21] 88 % of control | [15] 100 % of control and 114 % of control | endpoint: mean survival time, dose: 50.0 mg/kg/injection, schedule: Q04DX002 (ip), vehicle: saline with Tween-80 94 % of control and 102 % of control | [16] 93 % of control | [17] 91 % of control | [11] 93 % of control | [22] 92 % of control | [12] 93 % of control | [23] 103 % of control

COc1ccccc1/C=C(\C(=O)O)c1cccc2ccccc12
inactive: [18] 93 % of control | [19] 100 % of control | [20] 98 % of control

O=C(CNC(=O)Nc1cccc(Cl)c1Cl)N/N=C/c1ccccc1O
inactive: [15] 104 % of control | [10] 101 % of control | [11] 96 % of control

COc1cccc(/C=N/N2CCN(/N=C/c3cccc(OC)c3OC)CC2)c1OC
inactive: [1] 94 % of control | [4] 98 % of control | [7] 100 % of control

— PubChem BioAssay AID248 (DTP/NCI, 2004)
